Laboratory results: patent publication US12139520B2 (priority 2020, dated 2024)
Numbered stars: 1 amine (or outer) side, 2 acyl side, 3 side chain; on linkers, the order of the positions; unused ones are H or OH. Bridge positions count the residues as written; N and C are the ends. Square brackets hold non-standard residues; d marks the D form. Peptide text beside a SMILES is read from it. * marks the point of attachment. C20 diacid = O=C(O)CCCCCCCCCCCCCCCCCCC(=O)*; γGlu = O=C(O)[C@H](CCC(=O)[*:2])N[*:1]; Hyp = O=C(O)[C@@H]1C[C@@H](O)CN1

Legend:
[1] = target: hAM1 receptor (Homo sapiens, UniProt O60895+Q16602); test: cAMP assay for in vitro receptor activation, hAM1-R; assay type: cell-based; settings: cAMP assay, hAM1 receptor; read-out: hAM1R EC50
hAM1 receptor, sequence (Q16602 23-461): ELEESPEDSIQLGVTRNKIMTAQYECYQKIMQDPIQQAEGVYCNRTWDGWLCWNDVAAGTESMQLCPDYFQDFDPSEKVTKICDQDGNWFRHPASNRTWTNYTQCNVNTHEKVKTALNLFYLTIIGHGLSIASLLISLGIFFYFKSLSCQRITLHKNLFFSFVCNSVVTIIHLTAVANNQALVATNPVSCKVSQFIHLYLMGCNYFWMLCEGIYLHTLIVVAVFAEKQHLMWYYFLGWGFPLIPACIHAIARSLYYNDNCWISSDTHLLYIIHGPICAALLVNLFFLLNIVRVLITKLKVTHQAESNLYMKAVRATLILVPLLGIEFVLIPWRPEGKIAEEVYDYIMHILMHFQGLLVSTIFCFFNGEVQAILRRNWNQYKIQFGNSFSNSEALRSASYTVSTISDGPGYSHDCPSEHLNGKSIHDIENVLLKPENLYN
hAM1 receptor, sequence (O60895 43-175 partner): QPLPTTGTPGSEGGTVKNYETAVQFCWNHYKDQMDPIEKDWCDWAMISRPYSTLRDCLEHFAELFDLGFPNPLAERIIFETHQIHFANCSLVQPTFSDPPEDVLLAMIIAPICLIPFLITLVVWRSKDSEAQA
Outline: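 Receptor activation, read as cAMP, was assessed in thawed cells of a monoclonal hAM1-overexpressing stable line, plated at 8000 cells/well in DPBS supplemented with 0.05% casein and 0.5 mM IBMX.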

[2] = target: T1, hAMY3 receptor (Homo sapiens, UniProt O60896+P30988); test: cAMP assay for in vitro receptor activation, hAMY3-R; assay type: cell-based; settings: cAMP assay, hAMY3 receptor; read-out: hAMY3R EC50
T1 sequence (P30988 25-474): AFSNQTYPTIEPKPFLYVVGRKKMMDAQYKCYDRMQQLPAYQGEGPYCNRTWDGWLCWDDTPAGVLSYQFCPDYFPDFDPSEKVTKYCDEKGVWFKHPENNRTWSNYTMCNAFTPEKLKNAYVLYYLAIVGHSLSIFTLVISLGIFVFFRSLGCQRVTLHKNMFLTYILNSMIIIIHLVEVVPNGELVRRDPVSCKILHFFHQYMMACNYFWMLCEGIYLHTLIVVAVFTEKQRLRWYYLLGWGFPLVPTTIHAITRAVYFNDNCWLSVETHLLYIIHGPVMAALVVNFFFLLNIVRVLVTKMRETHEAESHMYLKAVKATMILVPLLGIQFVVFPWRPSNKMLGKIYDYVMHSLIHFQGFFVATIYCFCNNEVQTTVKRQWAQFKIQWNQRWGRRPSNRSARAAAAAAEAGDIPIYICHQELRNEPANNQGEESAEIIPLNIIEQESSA
T1 sequence (O60896 24-148 partner): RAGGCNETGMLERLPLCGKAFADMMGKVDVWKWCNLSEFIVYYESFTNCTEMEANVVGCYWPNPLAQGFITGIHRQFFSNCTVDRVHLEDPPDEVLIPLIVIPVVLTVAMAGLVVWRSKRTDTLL
Outline: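 Thawed cells from a sub-cloned monoclonal hAMY3-overexpressing line are plated in DPBS containing 0.05% casein and 0.5 mM IBMX. Test compounds are added immediately at graded doses for 30 min at room temperature. Reagents for cAMP detection are then added, and TR-FRET is recorded after one hour.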

Row | SMILES | EC50 [1] | EC50 [2]
1 | CC[C@H](C)[C@H](NC(=O)[C@H](CCC(N)=O)NC(=O)[C@H](Cc1c[nH]cn1)NC(=O)[C@H](C)NC(=O)[C@H](CC(C)C)NC(=O)[C@H](CCCNC(=N)N)NC(=O)[C@H](CCC(N)=O)NC(=O)[C@@H](NC(=O)[C@@H](NC(=O)[C@@H]1CSSC[C@H](NC(=O)[C@H](CCCCN)NC(=O)CC[C@H](NC(=O)CCCCCCCCCCCCCCCCCCC(=O)O)C(=O)O)C(=O)N[C@@H](CC(N)=O)C(=O)N[C@@H]([C@@H](C)O)C(=O)N[C@@H](C)C(=O)N[C@@H]([C@@H](C)O)C(=O)N1)[C@@H](C)O)C(C)C)C(=O)N[C@@H](C)C(=O)N[C@@H](CCC(N)=O)C(=O)N[C@@H](Cc1ccccc1)C(=O)N[C@@H](C)C(=O)N[C@@H](CC(=O)O)C(=O)N[C@@H](CCCCN)C(=O)N[C@@H](CC(=O)O)C(=O)N[C@@H](CCCCN)C(=O)N[C@@H](CC(=O)O)C(=O)N[C@@H](CC(N)=O)C(=O)N[C@H](C(=O)N[C@@H](C)C(=O)N1CCC[C@H]1C(=O)N1CCC[C@H]1C(=O)N[C@H](C(=O)N[C@@H](CC(N)=O)C(=O)N[C@H](C(=O)NCC(=O)N[C@@H](CO)C(=O)N[C@@H](CC(N)=O)C(=O)NCC(=O)N1C[C@H](O)C[C@H]1C(N)=O)C(C)C)[C@@H](C)O)C(C)C [compound 105] ({C20 diacid-γGlu}-KCNTATCTVQRLAHQIAQFADKDKDNVAPPTNVGSNG[Hyp]-NH2; disulfide 2-7) | > 5000 nM | 0.018 nM
2 | CC[C@H](C)[C@H](NC(=O)[C@H](CCC(N)=O)NC(=O)[C@H](CCC(=O)O)NC(=O)[C@H](C)NC(=O)[C@H](CC(C)C)NC(=O)[C@H](CCCNC(=N)N)NC(=O)[C@H](CCC(N)=O)NC(=O)[C@@H](NC(=O)[C@@H](NC(=O)[C@@H]1CSSC[C@H](NC(=O)[C@H](CCCCN)NC(=O)CC[C@H](NC(=O)CCCCCCCCCCCCCCCCCCC(=O)O)C(=O)O)C(=O)N[C@@H](CC(N)=O)C(=O)N[C@@H]([C@@H](C)O)C(=O)N[C@@H](C)C(=O)N[C@@H]([C@@H](C)O)C(=O)N1)[C@@H](C)O)C(C)C)C(=O)N[C@@H](Cc1ccc(O)cc1)C(=O)N[C@@H](CCC(N)=O)C(=O)N[C@@H](Cc1ccccc1)C(=O)N[C@H](C(=O)N[C@@H](CC(=O)O)C(=O)N[C@@H](CCCCN)C(=O)N[C@@H](CC(=O)O)C(=O)N[C@@H](CCCCN)C(=O)N[C@@H](CC(=O)O)C(=O)N[C@@H](CC(N)=O)C(=O)N[C@H](C(=O)N[C@@H](C)C(=O)N1CCC[C@H]1C(=O)N1CCC[C@H]1C(=O)N[C@H](C(=O)N[C@@H](C)C(=O)N[C@H](C(=O)NCC(=O)N[C@@H](CO)C(=O)N[C@@H](CC(N)=O)C(=O)NCC(=O)N1C[C@H](O)C[C@H]1C(N)=O)C(C)C)[C@@H](C)O)C(C)C)[C@@H](C)O [compound 63] ({C20 diacid-γGlu}-KCNTATCTVQRLAEQIYQFTDKDKDNVAPPTAVGSNG[Hyp]-NH2; disulfide 2-7) | > 5000 nM | 0.012 nM
3 | CC[C@H](C)[C@H](NC(=O)[C@H](CCC(N)=O)NC(=O)[C@H](Cc1c[nH]cn1)NC(=O)[C@H](C)NC(=O)[C@H](CC(C)C)NC(=O)[C@H](CCCNC(=N)N)NC(=O)[C@H](CCC(N)=O)NC(=O)[C@@H](NC(=O)[C@@H](NC(=O)[C@@H]1CSSC[C@H](NC(=O)[C@H](CCCCN)NC(=O)CC[C@H](NC(=O)CCCCCCCCCCCCCCCCCCC(=O)O)C(=O)O)C(=O)N[C@@H](CC(N)=O)C(=O)N[C@@H]([C@@H](C)O)C(=O)N[C@@H](C)C(=O)N[C@@H]([C@@H](C)O)C(=O)N1)[C@@H](C)O)C(C)C)C(=O)N[C@@H](C)C(=O)N[C@@H](CCC(N)=O)C(=O)N[C@@H](Cc1ccc(O)cc1)C(=O)N[C@H](C(=O)N[C@@H](CC(=O)O)C(=O)N[C@@H](CCCCN)C(=O)N[C@@H](CC(=O)O)C(=O)N[C@@H](CCCCN)C(=O)N[C@@H](CC(=O)O)C(=O)N[C@@H](CC(N)=O)C(=O)N[C@H](C(=O)N[C@@H](C)C(=O)N1CCC[C@H]1C(=O)N1CCC[C@H]1C(=O)N[C@H](C(=O)N[C@@H](CC(N)=O)C(=O)N[C@H](C(=O)NCC(=O)N[C@@H](CO)C(=O)N[C@@H](CC(N)=O)C(=O)NCC(=O)N1C[C@H](O)C[C@H]1C(N)=O)C(C)C)[C@@H](C)O)C(C)C)[C@@H](C)O [compound 71] ({C20 diacid-γGlu}-KCNTATCTVQRLAHQIAQYTDKDKDNVAPPTNVGSNG[Hyp]-NH2; disulfide 2-7) | > 5000 nM | 0.013 nM

Second part, the compound after the results:

Row | EC50 [1] | EC50 [2] | SMILES
4 | > 5000 nM | 0.04 nM | CC[C@H](C)[C@H](NC(=O)[C@H](C)NC(=O)CNC(=O)[C@H](Cc1ccccc1)NC(=O)[C@H](CC(N)=O)NC(=O)[C@H](CC(N)=O)NC(=O)[C@H](CO)NC(=O)[C@H](CO)NC(=O)[C@H](Cc1c[nH]cn1)NC(=O)[C@@H](NC(=O)[C@H](CC(C)C)NC(=O)[C@H](Cc1ccccc1)NC(=O)[C@H](CC(N)=O)NC(=O)[C@H](C)NC(=O)[C@H](CC(C)C)NC(=O)[C@H](CCCNC(=N)N)NC(=O)[C@H](CCC(N)=O)NC(=O)[C@@H](NC(=O)[C@H](C)NC(=O)[C@@H]1CSSC[C@H](NC(=O)[C@@H](N)CCCCN)C(=O)N[C@@H](CC(N)=O)C(=O)N[C@@H]([C@@H](C)O)C(=O)N[C@@H](C)C(=O)N[C@@H]([C@@H](C)O)C(=O)N1)[C@@H](C)O)C(C)C)C(=O)N[C@@H](CC(C)C)C(=O)N[C@@H](CO)C(=O)N[C@@H](CO)C(=O)N[C@H](C(=O)N[C@@H](CCCCN)C(=O)N[C@H](C(=O)NCC(=O)N[C@@H](CO)C(=O)N[C@@H](CC(N)=O)C(=O)NCC(=O)N[C@@H](Cc1ccc(O)cc1)C(N)=O)[C@@H](C)CC)[C@@H](C)O [compound 148] (H-KCNTATCATQRLANFLVHSSNNFGAILSSTKIGSNGY-NH2; disulfide 2-7; N-terminus assumed)
5 | > 5000 nM | 0.021 nM | CC[C@H](C)[C@H](NC(=O)[C@H](CCC(N)=O)NC(=O)[C@H](Cc1c[nH]cn1)NC(=O)[C@H](C)NC(=O)[C@H](CC(C)C)NC(=O)[C@H](CCCNC(=N)N)NC(=O)[C@H](CC(=O)O)NC(=O)[C@@H](NC(=O)[C@@H](NC(=O)[C@@H]1CSSC[C@H](NC(=O)[C@H](CCCCN)NC(=O)CC[C@H](NC(=O)CCCCCCCCCCCCCCCCCCC(=O)O)C(=O)O)C(=O)N[C@@H](CC(N)=O)C(=O)N[C@@H]([C@@H](C)O)C(=O)N[C@@H](C)C(=O)N[C@@H]([C@@H](C)O)C(=O)N1)[C@@H](C)O)C(C)C)C(=O)N[C@@H](C)C(=O)N[C@@H](CCC(N)=O)C(=O)N[C@@H](Cc1ccccc1)C(=O)N[C@H](C(=O)N[C@@H](CC(=O)O)C(=O)N[C@@H](CCCCN)C(=O)N[C@@H](CC(=O)O)C(=O)N[C@@H](CCCCN)C(=O)N[C@@H](CC(=O)O)C(=O)N[C@@H](CC(N)=O)C(=O)N[C@H](C(=O)N[C@@H](C)C(=O)N1CCC[C@H]1C(=O)N1CCC[C@H]1C(=O)N[C@H](C(=O)N[C@@H](CC(N)=O)C(=O)N[C@H](C(=O)NCC(=O)N[C@@H](CO)C(=O)N[C@@H](CC(N)=O)C(=O)NCC(=O)N1C[C@H](O)C[C@H]1C(N)=O)C(C)C)[C@@H](C)O)C(C)C)[C@@H](C)O [compound 112] ({C20 diacid-γGlu}-KCNTATCTVDRLAHQIAQFTDKDKDNVAPPTNVGSNG[Hyp]-NH2; disulfide 2-7)
